This is an account of results in patent publication US8518952B2, “6 substituted 2-heterocyclylamino pyrazine compounds as CHK-1 inhibitors” (Pfizer Inc., priority 2008, dated 2013).

The target of one experiment is T1, CHK1 (kinase domain) (Homo sapiens, UniProt O14757).
T1 construct: a solution containing 1 nM of CHK1 (kinase domain)
T1 sequence (O14757 9-265 limits assumed): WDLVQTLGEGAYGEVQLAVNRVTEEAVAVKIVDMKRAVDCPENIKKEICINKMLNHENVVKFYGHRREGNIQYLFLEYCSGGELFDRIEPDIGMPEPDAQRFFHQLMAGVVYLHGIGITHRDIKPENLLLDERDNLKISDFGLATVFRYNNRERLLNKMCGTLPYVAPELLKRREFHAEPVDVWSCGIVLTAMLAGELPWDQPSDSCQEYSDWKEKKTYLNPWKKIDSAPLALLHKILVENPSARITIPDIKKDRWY
Briefly: CHK1 Ki determination, spectrophotometric coupled (pyruvate kinase/lactate dehydrogenase) assay. The format is biochemical. The following applies: CHK-1 kinase domain; 150 uM ATP, 125 uM Syntide 2. The method, boiled down:
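Ki values, or % inhibition where no Ki was obtained, come from a tight-binding fit that uses active enzyme concentration and the ATP Km. Rates were followed as NADH loss at 340 nm, with ADP production coupled via pyruvate kinase and lactate dehydrogenase. Reactions with ATP (150 uM) and Syntide 2 (125 uM) were started after the CHK1 kinase domain had stood with inhibitor for 15 min.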

The subject of another experiment is HeLa cells. Kind of experiment: Histone H3 (Ser10) phosphorylation ELISA, abrogation of camptothecin-induced G2 arrest (CHK-1 cellular assay). Type of experiment: cell-based. The following applies: Homo sapiens, HeLa, HeLa cells; camptothecin 8 hrs, then compound with nocodozole 16 hours; read-out: EC50. The procedure: The Histone H3 phosphorylation ELISA assay detects cells entering mitosis and represents the primary in vitro cell-based assay used to measure the cellular potency of compounds in abrogating the G2 check point induced by DNA damage in HeLa cells or MiaPaCa cells. The candidate substances were assayed for potency in their ability to inhibit camptothecin-induced G2 arrest, as measured by an increase in Histone H3 phosphorylation on Ser10, a marker of entry into mitosis.
Tissue culture plates were seeded with HeLa cells or MiaPaCa Cells and allowed to attach overnight. The cells were then treated with camptothecin to induce DNA damage for 8 hrs. Candidate substances or diluent were then added in the presence of nocodozole for 16 hours. […] The fresh whole cell lysates were then thawed and added to the ELISA plate with shaking for 3 hours. Between all subsequent steps plates were washed 4 times with PBST. Biotinylated phospho Histone H3 (ser10) detection antibody was added for 1 hour, followed by addition of horseradish peroxidase-linked streptavidin secondary antibody for 1 hour. Color development of the antibody was performed with addition of TMB substrate and incubation for 2 minutes on a plate shaker. […] EC50 values were calculated by sigmoid curve fitting using a four-parameter analysis.
Under the “Ki” column, data entries in the format of “%” are percent inhibition data where no Ki data is available. Data entry under the “EC50” column with an * are data obtained using Mia Paca-2 cells rather than HeLa cells. Data is not available where noted as n/a.
(An ELISA detects its analyte on a solid surface through an enzyme-linked reagent.)

Bounds are passed on as bounds.

In the case of `FC(F)(F)c1ccc2ncc(-c3cncc(N[C@@H]4CCCNC4)n3)n2c1` [Example 39, N-[(3R)-piperidin-3-yl]-6-[6-(trifluoromethyl)imidazo[1,2-a]pyridin-3-yl]pyrazin-2-amine], on CHK1 (kinase domain), the affinity, expressed as Ki, was 17 nM. Besides, the EC50 (commonly the concentration needed to bring the measured effect to its halfway point) in the experiment with HeLa cells was 677 nM.
On the same counts, the results for `FC(F)(F)c1ccn2c(-c3cncc(N[C@@H]4CCCNC4)n3)cnc2c1` [Example 40, N-[(3R)-piperidin-3-yl]-6-[7-(trifluoromethyl)imidazo[1,2-a]pyridin-3-yl]pyrazin-2-amine] are 4.43 nM and 104 nM.
On the same counts, the results for `c1cn2c(-c3cncc(N[C@@H]4CCCNC4)n3)cnc2s1` [Example 41, 6-Imidazo[2,1-b][1,3]thiazol-5-yl-N-[(3R)-piperidin-3-yl]pyrazin-2-amine] are 7 nM and 25.8 nM.
On the same counts, the results for `CCc1ccn2c(-c3cncc(N[C@@H]4CCCNC4)n3)cnc2c1` [Example 42, 6-(7-Ethylimidazo[1,2-a]pyridin-3-yl)-N-[(3R)-piperidin-3-yl]pyrazin-2-amine] are 7 nM and 29.3 nM.
`CC(C)c1ccc2ncc(-c3cncc(N[C@@H]4CCCNC4)n3)n2c1` [Example 43, 6-(6-Isopropylimidazo[1,2-a]pyridin-3-yl)-N-[(3R)-piperidin-3-yl]pyrazin-2-amine]: the affinity on CHK1 (kinase domain) corresponds to a Ki of 6.69 nM. Moreover, in the experiment on HeLa cells, the half-maximal effective concentration (EC50) came out at 64.6 nM.
On the same counts, the results for `Clc1ccn2c(-c3cncc(N[C@@H]4CCCNC4)n3)cnc2c1` [Example 44, 6-(7-Chloroimidazo[1,2-a]pyridin-3-yl)-N-[(3R)-piperidin-3-yl]pyrazin-2-amine] are 2.51 nM and 21 nM.
The corresponding values for `CC1(COc2ccc3c(c2)ncn3-c2cncc(N[C@@H]3CCCNC3)n2)COC1` [Example 47, 6-{5-[(3-Methyloxetan-3-yl)methoxy]-1H-benzimidazol1-yl}-N-[(3R)-piperidin-3-yl]pyrazin-2-amine] are 24.6 nM and 52.2 nM.
On the same counts, the results for `c1ccn2c(-c3cncc(N[C@H]4CCNC4)n3)cnc2c1` [Example 48, 6-Imidazo[1,2-a]pyridin-3-yl-N-[(3S)-pyrrolidin-3-yl]pyrazin-2-amine] are 165 nM and 600 nM.
Turning to `c1cn2c(-c3cncc(N[C@@H]4CCNC4)n3)cnc2s1` [Example 49, 6-Imidazo[2,1-b][1,3]thiazol-5-yl-N-[(3R)-pyrrolidin-3-yl]pyrazin-2-amine], the inhibition constant (Ki) (as a rule, the equilibrium dissociation constant of an inhibitor or competing ligand from its target) at CHK1 (kinase domain) was 11.7 nM. For the same compound, the concentration giving a half-maximal response (EC50) in the experiment on HeLa cells was 142 nM.
On the same counts, the results for `Cc1ccc2ncc(-c3cncc(N[C@@H]4CCNC4)n3)n2c1` [Example 50, 6-(6-Methylimidazo[1,2-a]pyridin-3-yl)-N-[(3R)-pyrrolidin-3-yl]pyrazin-2-amine] are 17.4 nM and 148 nM.
The corresponding values for `Cc1ccn2c(-c3cncc(N[C@@H]4CCNC4)n3)cnc2c1` [Example 51, 6-(7-Methylimidazo[1,2-a]pyridin-3-yl)-N-[(3R)-pyrrolidin-3-yl]pyrazin-2-amine] are 9.6 nM and 95.6 nM.
For the compound `COc1ccn2c(-c3cncc(N[C@@H]4CCNC4)n3)cnc2c1` [Example 52, 6-(7-Methoxyimidazo[1,2-a]pyridin-3-yl)-N-[(3R)-pyrrolidin-3-yl]pyrazin-2-amine], on CHK1 (kinase domain), the inhibition constant Ki turned out to be 9.55 nM. Moreover, the EC50 in the experiment on HeLa cells came to 72.9 nM.
On the same counts, the results for `FC(F)(F)c1ccn2c(-c3cncc(N[C@@H]4CCNC4)n3)cnc2c1` [Example 53, N-[(3R)-pyrrolidin-3-yl]-6-[7-(trifluoromethyl)imidazo[1,2-a]pyridin-3-yl]pyrazin-2-amine] are 37 nM and 459 nM.
The corresponding values for `CC1(Nc2cncc(-c3cnc4ccccn34)n2)CCCNC1` (stereo not shown) [Example 54, 6-Imidazo[1,2-a]pyridin-3-yl-N-(3-methylpiperidin-3-yl)pyrazin-2-amine] are 118 nM and 1110 nM.
The corresponding values for `COc1ccc2ncc(-c3cncc(N[C@@H]4CCNC4)n3)n2c1` [Example 55, 6-(6-Methoxyimidazo[1,2-a]pyridin-3-yl)-N-[(3R)-pyrrolidin-3-yl]pyrazin-2-amine] are 23 nM and 229 nM.
`CCc1ccn2c(-c3cncc(N[C@@H]4CCNC4)n3)cnc2c1` [Example 56, 6-(7-Ethylimidazo[1,2-a]pyridin-3-yl)-N-[(3R)-pyrrolidin-3-yl]pyrazin-2-amine] yielded a Ki on CHK1 (kinase domain) of 11.2 nM. Besides, the 50% effective concentration (EC50) with HeLa cells came to 126 nM.
Compound `CC(C)c1ccc2ncc(-c3cncc(N[C@@H]4CCNC4)n3)n2c1` [Example 57, 6-(6-Isopropylimidazo[1,2-a]pyridin-3-yl)-N-[(3R)-pyrrolidin-3-yl]pyrazin-2-amine] displayed an inhibitory constant (Ki) on CHK1 (kinase domain) of 6.09 nM. The EC50 in the experiment with HeLa cells is 373 nM.
The corresponding values for `Cc1cn2c(-c3cncc(N[C@@H]4CCCNC4)n3)cnc2s1` [Example 59, 6-(2-Methylimidazo[2,1-b][1,3]thiazol-5-yl)-N-[(3R)-piperidin-3-yl]pyrazin-2-amine] are 3 nM and 9.09 nM.
The corresponding values for `c1cnn2c(-c3cncc(N[C@@H]4CCCNC4)n3)cnc2c1` [Example 60, 6-Imidazo[1,2-b]pyridazin-3-yl-N-[(3R)-piperidin-3-yl]pyrazin-2-amine] are 1000 nM and 8320 nM.
On the same counts, the results for `Cc1ncc(-c2cncc(N[C@@H]3CCCNC3)n2)n1C` [Example 64, 6-(1,2-dimethyl-1H-imidazol-5-yl)-N-[(3R)-piperidin-3-yl]pyrazin-2-amine] are 1110 nM and no less than 10000 nM.
At CHK1 (kinase domain), `F[C@H]1CNC[C@@H]1Nc1cncc(-c2cnc3cc(Cl)ccn23)n1` [Example 65, 6-(7-chloroimidazo[1,2-a]pyridin-3-yl)-N-[(3S,4S)-4-fluoropyrrolidin-3-yl]pyrazin-2-amine] showed a Ki of 33 nM. Also, the EC50 with HeLa cells came out at 501 nM.
On the same counts, the results for `F[C@H]1CNC[C@@H]1Nc1cncc(-c2cnn3ccccc23)n1` [Example 66, N-[(3S,4S)-4-fluoropyrrolidin-3-yl]-6-(pyrazolo[1,5-a]pyridin-3-yl)pyrazin-2-amine] are 12.7 nM and 344 nM.
On the same counts, the results for `FC[C@@H]1C[C@@H](Nc2cncc(-c3cnc4ccccn34)n2)CN1` [Example 67, N-[(3R,5S)-5-(fluoromethyl)pyrrolidin-3-yl]-6-imidazo[1,2-a]pyridin-3-ylpyrazin-2-amine] are 80 nM and 507 nM.
On the same counts, the results for `FC[C@@H]1C[C@@H](Nc2cncc(-c3cnc4cc(C(F)(F)F)ccn34)n2)CN1` [Example 78, N-[(3R,5S)-5-(fluoromethyl)pyrrolidin-3-yl]-6-[7-(trifluoromethyl)imidazo[1,2-a]pyridin-3-yl]pyrazin-2-amine] are 37.1 nM and 3560 nM.
On to `FC[C@@H]1C[C@@H](Nc2cncc(-c3cnn4cc(Cl)ccc34)n2)CN1` [Example 79, 6-(6-chloropyrazolo[1,5-a]pyridin-3-yl)-N-[(3R,5S)-5-(fluoromethyl)pyrrolidin-3-yl]pyrazin-2-amine], for which the inhibition constant Ki on CHK1 (kinase domain) was 5.68 nM. The concentration giving a half-maximal response (EC50) in the experiment on HeLa cells was determined as 184 nM.
The corresponding values for `C[C@@H]1CC[C@@H](Nc2cncc(-c3cnc4ccc(F)cn34)n2)CN1` [Example 88, 6-(6-fluoroimidazo[1,2-a]pyridin-3-yl)-N-[(3R,6R)-6-methylpiperidin-3-yl]pyrazin-2-amine] are 90.7 nM and no less than 10000 nM.
On the same counts, the results for `FC(F)[C@@H]1C[C@@H](Nc2cncc(-c3cnc4cc(C(F)(F)F)ccn34)n2)CN1` [Example 89, N-[(3R,5S)-5-(difluoromethyl)pyrrolidin-3-yl]-6-[7-(trifluoromethyl)imidazo[1,2-a]pyridin-3-yl]pyrazin-2-amine] are 261 nM and no less than 10000 nM.
With `Fc1ccc2ncc(-c3cncc(N[C@H]4CNC[C@H]4F)n3)n2c1` [Example 90, 6-(6-fluoroimidazo[1,2-a]pyridin-3-yl)-N-[(3S,4R)-4-fluoropyrrolidin-3-yl]pyrazin-2-amine], on CHK1 (kinase domain), the Ki is 70.5 nM. The EC50 in the experiment with HeLa cells was no less than 10000 nM.
On the same counts, the results for `Fc1ccc2ncc(-c3cncc(N[C@@H]4CCNC4)n3)n2c1` [Example 91, 6-(6-fluoroimidazo[1,2-a]pyridin-3-yl)-N-[(3R)-pyrrolidin-3-yl]pyrazin-2-amine] are 18.7 nM and 497 nM.
